Laboratory results from ChEMBL document CHEMBL1201862, “PubChem BioAssay data set” (2004).
Where “and” joins values, the source holds several entries; their conditions need not be identical. Equal entries are not always repeated.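 Five compound concentrations were applied to cells in 96-well plates for 48 hours; endpoints were derived by simple linear interpolation of the resulting dose-response curve. GI50 = concentration required for 50% inhibition of growth.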 Calls of active or inactive are those of the source. Cut-off read from the data, not from the text of the source: active = GI50 up to about 1.1 µM and inactive = higher.

Columns and labels:
Test in all cases: DTP human tumour cell line panel, 48 h
LXFL 529 = test system: LXFL 529
A549 = test system: A549
KM12 = test system: KM12
DMS-114 = test system: DMS-114
SK-OV-3 = test system: SK-OV-3
SNB-78 = test system: SNB-78
U-251 = test system: U-251
TK-10 = test system: TK-10
M14 = test system: M14
SK-MEL-2 = test system: SK-MEL-2
XF498 = test system: XF498
UACC-257 = test system: UACC-257
HCT-116 = test system: HCT-116
MOLT-4 = test system: MOLT-4
HL-60 = test system: HL-60
OVCAR-3 = test system: OVCAR-3
SNB-19 = test system: SNB-19
DLD-1 = test system: DLD-1
RXF 393 = test system: RXF 393
EKVX = test system: EKVX
HOP-62 = test system: HOP-62
OVCAR-5 = test system: OVCAR-5
OVCAR-8 = test system: OVCAR-8
786-0 = test system: 786-0
SF-539 = test system: SF-539
SF-268 = test system: SF-268
SW-620 = test system: SW-620
K562 = test system: K562
UO-31 = test system: UO-31
SN12C = test system: SN12C
NCI-H226 = test system: NCI-H226
SR = test system: SR
M19-MEL = test system: M19-MEL
IGROV-1 = test system: IGROV-1
CAKI-1 = test system: CAKI-1
UACC-62 = test system: UACC-62
OVCAR-4 = test system: OVCAR-4
NCI-H522 = test system: NCI-H522
HT-29 = test system: HT-29
KM-20L2 = test system: KM-20L2
SF-295 = test system: SF-295
ACHN = test system: ACHN
A498 = test system: A498
RPMI-8226 = test system: RPMI-8226
DMS-273 = test system: DMS-273
SNB-75 = test system: SNB-75
NCI-H23 = test system: NCI-H23
HOP-18 = test system: HOP-18
NCI-H460 = test system: NCI-H460
HOP-92 = test system: HOP-92
HCC 2998 = test system: HCC 2998
COLO 205 = test system: COLO 205
HCT-15 = test system: HCT-15
CCRF-CEM = test system: CCRF-CEM
Malme-3M = test system: Malme-3M
SK-MEL-5 = test system: SK-MEL-5
RXF 631 = test system: RXF 631
LOX IMVI = test system: LOX IMVI
NCI/ADR-RES = test system: NCI/ADR-RES
SK-MEL-28 = test system: SK-MEL-28

Measured: GI50

CCCCCC(=O)Nc1nc(O)c2[nH]cnc2n1
inactive: LXFL 529 > 100000 nM | A549 > 100 µM | KM12 > 100 µM | DMS-114 > 100000 nM | SK-OV-3 > 100 µM | SNB-78 > 100000 nM | U-251 > 100000 nM | TK-10 > 100000 nM | M14 > 100000 nM | SK-MEL-2 > 100 µM | XF498 > 100000 nM | UACC-257 > 100 µM | HCT-116 > 100000 nM | MOLT-4 > 100000 nM | HL-60 > 100000 nM | OVCAR-3 > 100000 nM | SNB-19 > 100000 nM | DLD-1 > 100000 nM | RXF 393 > 100 µM | EKVX > 100 µM | HOP-62 > 100 µM | OVCAR-5 > 100 µM | OVCAR-8 > 100 µM | 786-0 > 100 µM | SF-539 > 100000 nM | SF-268 > 100 µM | SW-620 > 100 µM | K562 > 100000 nM | UO-31 > 100000 nM | SN12C > 100000 nM | NCI-H226 > 100 µM | SR > 100000 nM | M19-MEL > 100000 nM | IGROV-1 > 100 µM | CAKI-1 > 100000 nM | UACC-62 > 100000 nM | OVCAR-4 > 100000 nM | NCI-H522 52400 nM | HT-29 > 100000 nM | KM-20L2 > 100000 nM | SF-295 > 100 µM | ACHN > 100 µM | A498 > 100000 nM | RPMI-8226 > 100000 nM | DMS-273 > 100000 nM | SNB-75 > 100 µM | NCI-H23 > 100 µM | HOP-18 > 100000 nM | NCI-H460 > 100 µM | HOP-92 > 100 µM | HCC 2998 > 100 µM | COLO 205 > 100000 nM | CCRF-CEM > 100000 nM | Malme-3M > 100000 nM | SK-MEL-5 > 100 µM
> 100000 nM: HCT-15

COC1=C(C)C(=O)C2=C(C1=O)C(CO)N1C(C#N)C3CC4C(C1C2N1CCOC41)N3C (stereo not given)
< 10 nM and 14.4 nM: HCT-15
active: A549 354 nM and 321 nM | KM12 58.8 nM and 80.7 nM | SK-OV-3 164 nM and 261 nM | SK-MEL-2 15.8 nM and 19.4 nM | UACC-257 26.2 nM and 27.7 nM | MOLT-4 12.8 nM | HL-60 13.3 nM | DLD-1 7.06 nM | RXF 631 167 nM | RXF 393 20.9 nM and 20.6 nM | EKVX 314 nM and 305 nM | HOP-62 270 nM and 166 nM | OVCAR-5 262 nM and 241 nM | OVCAR-8 30.3 nM and 19.3 nM | 786-0 20 nM and 26.8 nM | SF-268 78.5 nM and 85.9 nM | SW-620 < 14.6 nM and 16.4 nM | NCI-H226 99.3 nM and 57.9 nM | M19-MEL 49.2 nM | IGROV-1 45.1 nM and 32.4 nM | KM-20L2 61.7 nM | SF-295 292 nM and 179 nM | ACHN 64.1 nM and 38.8 nM | A498 146 nM | DMS-273 20 nM | SNB-75 20.6 nM and 39.5 nM | NCI-H23 35.2 nM and 39.1 nM | HOP-18 132 nM | NCI-H460 90.8 nM and 150 nM | LOX IMVI 11.6 nM and < 14.1 nM | HOP-92 24.1 nM and < 16.9 nM | HCC 2998 72.4 nM and 60.3 nM | NCI/ADR-RES 22.6 nM and 31.5 nM | SK-MEL-5 50.7 nM and 29.9 nM | SK-MEL-28 51.8 nM and 52 nM

CC(=O)OC(C)(C)/C=C/C(=O)[C@](C)(O)[C@H]1[C@H](O)C[C@@]2(C)[C@@H]3CC=C4[C@@H](C[C@H](O)C(=O)C4(C)C)[C@]3(CO)C(=O)C[C@]12C [CUCURBITACIN A]
active: LXFL 529 340 nM | A549 0.391 µM | KM12 1.1 µM | DMS-114 483 nM | SK-OV-3 0.391 µM | SNB-78 330 nM | U-251 233 nM | TK-10 179 nM | M14 390 nM | SK-MEL-2 0.1 µM | XF498 374 nM | UACC-257 0.364 µM | HCT-116 437 nM | HL-60 335 nM | OVCAR-3 446 nM | SNB-19 249 nM | DLD-1 337 nM | RXF 393 0.208 µM | EKVX 0.364 µM | HOP-62 0.26 µM | OVCAR-5 0.955 µM | OVCAR-8 0.615 µM | 786-0 0.316 µM | SF-539 285 nM | SF-268 0.168 µM | SW-620 0.367 µM | K562 445 nM | UO-31 317 nM | SN12C 448 nM | NCI-H226 0.0762 µM | SR 650 nM | M19-MEL 451 nM | IGROV-1 0.634 µM | CAKI-1 243 nM | UACC-62 543 nM | OVCAR-4 348 nM | NCI-H522 288 nM | HT-29 308 nM | KM-20L2 303 nM | SF-295 0.314 µM | ACHN 0.262 µM | A498 231 nM | RPMI-8226 94.2 nM | DMS-273 149 nM | SNB-75 0.131 µM | NCI-H23 0.536 µM | HOP-18 148 nM | NCI-H460 0.184 µM | LOX IMVI 207 nM | HOP-92 0.237 µM | HCC 2998 0.35 µM | COLO 205 318 nM | CCRF-CEM 286 nM | Malme-3M 344 nM | SK-MEL-5 0.316 µM | SK-MEL-28 132 nM
468 nM: HCT-15
inactive: MOLT-4 3100 nM
